Experimental data published in US10322995B2, “Substituted cyano cycloalkyl penta-2,4-dienes, cyano cycloalkyl pent-2-en-4-ynes, cyano heterocyclyl penta-2,4-dienes and cyano heterocyclyl pent-2-en-4-ynes as active substances against abiotic plant stress” (BAYER CROPSCIENCE AKTIENGESELLSCHAFT, priority 2014, dated 2019).

Key:
[1] = target: T1, phosphatase ABI1 via the co-regulator RCAR11/PYR1 (Arabidopsis thaliana, UniProt O49686+P49597); test: In vitro assay: inhibition of the phosphatase ABI1 via the co-regulator RCAR11/PYR1, MUP dephosphorylation, fluorescence; format: biochemical; conditions: concentration of 5 mM of the substance in a solution of DMSO and water; MUP dephosphorylation, fluorescence 460 nm
T1 sequence (O49686 1-191): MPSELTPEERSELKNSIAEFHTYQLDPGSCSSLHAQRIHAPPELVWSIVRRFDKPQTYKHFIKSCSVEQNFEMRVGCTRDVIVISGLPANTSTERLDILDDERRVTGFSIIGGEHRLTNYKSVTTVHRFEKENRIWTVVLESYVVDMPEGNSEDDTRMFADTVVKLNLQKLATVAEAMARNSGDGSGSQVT
T1 sequence (P49597 1-434): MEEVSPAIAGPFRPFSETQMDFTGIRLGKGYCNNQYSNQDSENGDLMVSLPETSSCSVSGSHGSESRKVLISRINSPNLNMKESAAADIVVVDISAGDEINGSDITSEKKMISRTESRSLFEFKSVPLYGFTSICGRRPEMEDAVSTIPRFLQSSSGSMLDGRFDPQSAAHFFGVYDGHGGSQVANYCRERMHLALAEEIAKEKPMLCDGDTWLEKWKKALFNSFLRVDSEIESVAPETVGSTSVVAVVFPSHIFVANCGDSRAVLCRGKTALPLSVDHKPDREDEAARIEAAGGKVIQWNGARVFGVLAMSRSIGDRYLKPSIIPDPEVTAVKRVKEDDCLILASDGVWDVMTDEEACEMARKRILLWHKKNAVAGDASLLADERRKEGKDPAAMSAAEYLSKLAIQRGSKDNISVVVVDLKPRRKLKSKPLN
From the text: Effects of the phytohormone abscisic acid (ABA) on the behaviour of plants under abiotic stress and the mechanism of action of ABA are described in the literature (cf. Abrams et al, WO97/23441, Cutler, Park et al. Science, 2009, 324, 1068; Grill et al. Science, 2009, 324, 1064; Tanokura et al. Biophysics, 2011, 7, 123; Schroeder et al. Plant J. 2010, 61, 290). Therefore, it is possible with the aid of a suitable in vitro test system to derive a correlation between the action of ABA and the stress response of a plant under abiotic stress. Under drought stress, plants form the phytohormone abscisic acid (ABA). This binds, along with a co-regulator (Regulatory Component of ABA-Receptor=RCAR according to Grill et al. Science, 2009, 324, 1064 or PYR/PYL according to Cutler et al. Science, 2009, 324, 1068), to a phosphatase (e.g. ABI1, a type 2C protein phosphatase, also abbreviated to PP2C) and inhibits its activity. As a result, a “downstream” kinase (e.g. SnRK2) is no longer dephosphorylated. This kinase, which is thus active, via phosphorylation of transcription factors (e.g. AREB/ABF, vgl. Yoshida et al., Plant J. 2010, 61, 672), switches on a genetic protection programme to increase drought stress tolerance.
The assay described hereinafter utilizes the inhibition of the phosphatase ABI1 via the co-regulator RCAR11/PYR1 aus Arabidopsis thaliana.
For the determination of activity, the dephosphorylation of 4-methylumbelliferyl phosphate (MUP) was measured at 460 nm. The in vitro assay was conducted in Greiner 384-well PS microplates F-well, using two controls: a) dimethyl sulphoxide (DMSO) 0.5% (f.c.) and b) 5 μM (f.c.) abscisic acid (ABA). […] The substance solution thus obtained, if necessary, was stirred with esterase from porcine liver (EC 3.1.1.1) at room temperature for 3 h and centrifuged at 4000 rpm for 30 min. A total volume of 45 μl was introduced into each cavity of the microplate, having the following composition: • 1) 5 μl of substance solution, i.e. a) DMSO 5% or b) abscisic acid solution or c) the corresponding example compound of the general formula (I) dissolved in 5% DMSO. • 2) 20 μl of enzyme buffer mix, composed of a) 40% by vol. of enzyme buffer (10 ml contain equal proportions by volume of 500 mM Tris-HCl pH8, 500 mM NaCl, 3.33 mM MnCl2, 40 mM dithiothreitol (DTT)), b) 4% by vol. of ABI1 dilution (protein stock solution was diluted so as to give, after addition, a final concentration in the assay of 0.15 μg ABI1/well), c) 4% by vol. of RCAR11 dilution (enzyme stock was diluted so as to give, on addition of the dilution to the enzyme buffer mix, a final concentration in the assay of 0.30 μg enzyme/well), d) 5% by vol. of Tween20 (1%), e) 47% by vol. H2O bi-dist. • 3) 20 μl of substrate mix, composed of a) 10% by vol. of 500 mM Tris-HCl pH8, b) 10% by vol. of 500 mM NaCl, c) 10% by vol. of 3.33 mM MnCl2, d) 5% by vol. of 25 mM MUP, 5% by vol. of Tween20 (1%), 60% by vol. of H2O bi-dist.
Enzyme buffer mix and substrate mix were made up 5 minutes prior to the addition and warmed to a temperature of 35° C. On completion of pipetting of all the solutions and on completion of mixing, the plate was incubated at 35° C. for 20 minutes. Finally, a relative fluorescence measurement was made at 35° C. with a BMG Labtech “POLARstar Optima” microplate reader using a 340/10 nm excitation filter and a 460 nm emission filter. The efficacy of the compounds of the general formula (I) is reported in the table which follows using abscisic acid (No. 64) as comparative substance according to the following classification: ++++ (inhibition≥90%), +++ (90%>inhibition≥70%), ++ (70%>inhibition≥50%), +(50%>inhibition≥30%).
Effects of selected compounds of the general formula (I) in the above-described in vitro assay at a concentration of 5 mM of the substance of the general formula (I) in question in a solution of DMSO and water: […]

Brassica napus (BRSNS) = test: In vivo analyses Part C: drought stress, appearance vs stressed control plants in categories (BRSNS); parameters: key: 0: no positive effect; 10: slight positive effect; 20: clear positive effect; 30: strong positive effect; conditions: appearance vs stressed control plants after recovery phase, efficacy range of 3-4 pots
Description: Seeds of monocotyledonous and dicotyledonous crop plants were sown in sandy loam in plastic or wood-fibre pots, covered with soil or sand and cultivated in a greenhouse under good growth conditions. The test plants were treated at the early leaf stage (BBCH10-BBCH13). To assure uniform water supply before commencement of stress, the potted plants were supplied with water by dam irrigation prior to substance application. The inventive compounds were first formulated as wettable powders (WP) or dissolved in a solvent mixture. The further dilution was effected with water supplemented with 0.2% wetting agent (e.g. agrotin). The finished spray liquor was sprayed onto the green parts of the plant at an equivalent water application rate of 600 I/ha. Substance application was followed immediately by stress treatment of the plants. For this purpose, the wood-fibre pots were transferred in plastic inserts in order to prevent them from subsequently drying out too quickly. Drought stress was induced by gradual drying out under the following conditions: “Day”: 14 hours with illumination at 26-30° C. “Night”: 10 hours without illumination at 18-20° C. The duration of the respective stress phases was guided mainly by the condition of the stressed control plants. It was ended (by re-irrigating and transfer to a greenhouse with good growth conditions) as soon as irreversible damage was observed on the stressed control plants. The end of the stress phase was followed by an about 4-7-day recovery phase, during which the plants were once again kept under good growth conditions in a greenhouse. The duration of the recovery phase was guided mainly by when the trial plants had attained a state which enabled visual scoring of potential effects, and was therefore variable. Once this juncture had been reached, the appearance of the plants treated with test substances was recorded in comparison to the stressed control plants by the following categories: [table] For each substance and dosage, 3-4 pots were treated and evaluated. BRSNS=Brassica napus

Row | Compound | ABI1 inhibition [1] | Effect (BRSNS) (Brassica napus (BRSNS); dosage 250 g/ha) | Effect (BRSNS) (Brassica napus (BRSNS); dosage 25 g/ha)
1 | COC(=O)C=C(C#CC(O)(c1ccc(C)cc1)C1(C#N)CC1)C(F)(F)F (racemic) [I.1-812] | +++ (90%>inhibition≥70%) | 10-20 | –
2 | CCCOC(=O)C=C(C#CC(O)(C(CC)CC)C1(C#N)CC1)C(F)(F)F (racemic) [I.1-887] | +++ (90%>inhibition≥70%) | 10-20 | –
3 | CCC(C=CC(O)(C(C)C)C1(C#N)CC1)=CC(=O)OC (racemic) [I.2-102] | ++++ (inhibition≥90%) | 10-20 | –
4 | CCCOC(=O)C=C(C=CC(O)(C(C)C)C1(C#N)CC1)CC (racemic) [I.2-507] | ++++ (inhibition≥90%) | 30 | –
5 | COC(=O)C=C(C)C=CC(O)(C1CC1)C1(C#N)CC1 (racemic) [I.2-543] | – | – | 30
6 | CCC(C=CC(O)(C(CC)CC)C1(C#N)CC1)=CC(=O)OC (racemic) [I.2-583] | ++++ (inhibition≥90%) | 10-30 | –
7 | CC/C(C#CC(O)(C1CC1)C1(C#N)CC1)=C/C(=O)OC (stereo not drawn) [I.1-618] | ++++ (inhibition≥90%) | – | 30
8 | CC/C(C#CC(O)(C1CCCCC1)C1(C#N)CC1)=C/C(=O)OC (stereo not drawn) [I.1-678] | ++++ (inhibition≥90%) | 10-30 | –
